Measured values: paper PMC8434050, “Design, Synthesis and SAR in 2,4,7-Trisubstituted Pyrido[3,2-d]Pyrimidine Series as Novel PI3K/mTOR Inhibitors” (Molecules, 2021)
pIC50: −log10 of the molar value.

How the values were obtained:
[1] = system: mammary carcinoma MDA-MB231; assay: Cytotoxic assay on MDA-MB231; type: cell-based; details: Homo sapiens, MDA-MB-231; 48 h of treatment, cell number by Hoechst nuclei staining, mean of triplicate
Protocol: (§1) Cell culture. Skin normal fibroblastic cells were purchased from Lonza (Basel, Switzerland), HuH7, Caco-2, MDA-MB-231 and Hacat cancer cell lines were obtained from the ECACC collection (Porton Down, UK). Cells were grown at 37 °C, 5% CO2 in ECACC recommended media: DMEM for HuH7, MDA-MB-231 and fibroblast, EMEM for CaCo-2 and Hacat. All culture media were supplemented by 10% of FBS, 1% of penicillin-streptomycin and 2 mM glutamine.
(§2) Cytotoxic assay. Chemicals were solubilized in DMSO at a concentration of 10 mM (stock solution) and diluted in culture medium to the desired final concentrations. […] Cells were plated in 96-well plates (4000 cells/well). Twenty-four hours after seeding, cells were exposed to chemicals. After 48h of treatment, cells were washed in PBS and fixed in cooled 90% ethanol/5% acetic acid for 20 min and the nuclei were stained with Hoechst 33,342 (B2261 Sigma). Image acquisition and analysis were performed using a Cellomics ArrayScan VTI/HCS Reader (ThermoScientific). The survival percentages were calculated as the percentage of cell number after compound treatment over cell number after DMSO treatment. The relative IC50 were calculated using the curve fitting XLfit 5.5.0.5 (idbs) integrated in Microsoft Excel as an add-on. The 4 Parameter Logistic Model or Sigmoidal Dose-Response Model was used (fit = (A + ((B − A)/(1 + ((C/x)^D))))).

normal human fibroblast = assay: Cytotoxic assay on fibroblasts; type: cell-based; details: 48 h of treatment, cell number by Hoechst nuclei staining, mean of triplicate
Protocol: as §1, §2

mTOR = mTOR (Homo sapiens, UniProt P42345); assay: mTOR kinase assay (LANCE Ultra kit; capillary electrophoresis assay); type: biochemical; details: selectivity index, IC50 mTOR / IC50 PI3Kα
Protocol: The amount of antibody bound to the peptide is directly related to its rate of phosphorylation. […] The experimental process was the following: inhibitor solution (2.5 µL) was injected in a plate followed by the addition of 2.5 µL of mTOR, and ATP/peptide (2.5 µL) solutions. After incubating for two hours at room temperature with no agitation and with the plate sealed, the kinase reaction was stopped by adding 5 μL of a solution at 32 mM EDTA. After 5 min of plate agitation, the detection solution (CR97-100, Perkin-Elmer) containing the antibody (5 μL) was added in each well to yield a final concentration of 2 nM of the antibody. The plate was sealed and incubated for the optimal time of 1h at room temperature without shaking before the assay readout at 665 nm.
The CE system used was a 1600 Hewlett Packard^3DCE (Agilent, Waldbronn, Germany) equipped with a photodiode array detection system. […]
(§6) All solutions were prepared with pure water, filtered through 0.45 µm PVDF Filter and stored at 4 °C. […] Their pH was measured with a MeterLab PHM201 Portable pH-Meter (Radiometer Analytical, Villeurbanne, France). […]

PI3Kβ = PI3Kβ (Homo sapiens, UniProt P42338); assay: PI3K isoform kinase assay, β (CE-assay); type: biochemical; details: read-out: IC50 on PI3K Isoforms, β
Chain of PI3Kβ (P42338 whole entry, canonical isoform): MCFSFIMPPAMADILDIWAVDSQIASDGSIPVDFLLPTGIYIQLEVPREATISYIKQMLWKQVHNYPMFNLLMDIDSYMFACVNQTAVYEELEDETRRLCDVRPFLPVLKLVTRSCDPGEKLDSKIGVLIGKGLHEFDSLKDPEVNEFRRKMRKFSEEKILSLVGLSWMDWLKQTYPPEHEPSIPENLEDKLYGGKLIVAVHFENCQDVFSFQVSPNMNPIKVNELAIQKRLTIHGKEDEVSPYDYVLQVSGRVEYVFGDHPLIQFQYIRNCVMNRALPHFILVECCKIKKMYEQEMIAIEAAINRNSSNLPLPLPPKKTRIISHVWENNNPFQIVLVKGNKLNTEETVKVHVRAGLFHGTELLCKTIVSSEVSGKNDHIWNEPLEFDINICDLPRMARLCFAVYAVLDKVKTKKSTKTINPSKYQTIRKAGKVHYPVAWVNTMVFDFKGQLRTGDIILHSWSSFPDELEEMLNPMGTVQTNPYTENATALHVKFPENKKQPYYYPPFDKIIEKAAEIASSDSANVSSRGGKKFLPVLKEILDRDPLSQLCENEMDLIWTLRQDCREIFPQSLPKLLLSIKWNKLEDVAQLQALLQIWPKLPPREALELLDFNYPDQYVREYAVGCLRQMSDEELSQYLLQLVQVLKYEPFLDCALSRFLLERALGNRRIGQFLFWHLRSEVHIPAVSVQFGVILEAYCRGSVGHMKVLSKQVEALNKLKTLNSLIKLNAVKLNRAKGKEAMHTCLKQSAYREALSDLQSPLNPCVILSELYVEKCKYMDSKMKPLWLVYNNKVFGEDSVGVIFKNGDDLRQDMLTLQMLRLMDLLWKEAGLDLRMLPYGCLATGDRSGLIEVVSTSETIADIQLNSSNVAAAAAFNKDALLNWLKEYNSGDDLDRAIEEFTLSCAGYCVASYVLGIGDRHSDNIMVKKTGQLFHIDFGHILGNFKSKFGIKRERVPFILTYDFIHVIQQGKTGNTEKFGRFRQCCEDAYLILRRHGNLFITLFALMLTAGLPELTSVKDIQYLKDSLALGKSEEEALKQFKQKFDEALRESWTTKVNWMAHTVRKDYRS
Chain of PI3Kβ (P27986 whole entry partner, canonical isoform): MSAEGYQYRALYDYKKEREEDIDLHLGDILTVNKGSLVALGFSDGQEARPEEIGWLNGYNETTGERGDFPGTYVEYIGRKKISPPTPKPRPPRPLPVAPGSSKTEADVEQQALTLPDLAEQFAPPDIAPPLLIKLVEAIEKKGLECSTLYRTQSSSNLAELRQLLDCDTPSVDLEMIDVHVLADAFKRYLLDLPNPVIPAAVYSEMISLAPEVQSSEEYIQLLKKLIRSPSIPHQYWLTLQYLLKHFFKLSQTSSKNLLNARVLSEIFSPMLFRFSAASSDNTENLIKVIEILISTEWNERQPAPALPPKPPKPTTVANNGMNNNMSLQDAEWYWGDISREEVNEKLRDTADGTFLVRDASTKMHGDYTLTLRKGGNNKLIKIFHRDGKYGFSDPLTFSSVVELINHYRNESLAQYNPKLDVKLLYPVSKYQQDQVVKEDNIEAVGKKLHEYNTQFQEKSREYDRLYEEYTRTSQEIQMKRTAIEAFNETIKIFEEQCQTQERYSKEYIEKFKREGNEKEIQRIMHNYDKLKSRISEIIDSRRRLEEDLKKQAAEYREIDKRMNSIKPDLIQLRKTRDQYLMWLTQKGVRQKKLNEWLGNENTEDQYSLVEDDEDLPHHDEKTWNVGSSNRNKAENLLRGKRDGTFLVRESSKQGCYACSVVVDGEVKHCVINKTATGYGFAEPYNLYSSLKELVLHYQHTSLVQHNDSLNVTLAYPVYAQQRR
Protocol: (§3) The CE system used was a 1600 Hewlett Packard^3DCE (Agilent, Waldbronn, Germany) equipped with a photodiode array detection system. Agilent software 3D-CE Chemstation (rev B.04.02) was used to pilot the CE system and for signal acquisition. CE analyses were performed in silica capillaries (66 cm total length, 57.5 cm effective length, 50 µm i.d.) purchased from Polymicro Technologies (Phoenix, AZ, USA). New capillaries were conditioned by 1.0 M NaOH for 30 min and water for 5 min. They were then coated by rinsing with cationic PDADMAC solution (0.2% w/v). The separation was conducted at −30 kV (reverse polarity) and at 30 °C. All rinse cycles were carried out at 4 bars. Between runs, the capillary was flushed for 1 min with water, 2 min with PDADMAC and 3 min with BGE.
(§4) All solutions were prepared with pure water, filtered through 0.45 µm PVDF Filter and stored at 4 °C. For PI3K and mTOR assays, the incubation buffer was HEPES/NaOH/MgCl2 (25 mM/8.84 mM/5 mM). Its pH was 7.2 and ionic strength was about 60 mM. […] Their pH was measured with a MeterLab PHM201 Portable pH-Meter (Radiometer Analytical, Villeurbanne, France). […]
(§5) In all enzymatic assays, after incubation, the electric field (of −30 kV) was applied to separate the ADP formed during the enzymatic reaction from the other reactants. ADP was detected at 254 nm for quantification. […]

PI3Kγ = PI3Kγ (Homo sapiens, UniProt P48736); assay: PI3K isoform kinase assay, γ (CE-assay); type: biochemical; details: read-out: IC50 on PI3K Isoforms, γ
Chain of PI3Kγ (P48736 whole entry, canonical isoform): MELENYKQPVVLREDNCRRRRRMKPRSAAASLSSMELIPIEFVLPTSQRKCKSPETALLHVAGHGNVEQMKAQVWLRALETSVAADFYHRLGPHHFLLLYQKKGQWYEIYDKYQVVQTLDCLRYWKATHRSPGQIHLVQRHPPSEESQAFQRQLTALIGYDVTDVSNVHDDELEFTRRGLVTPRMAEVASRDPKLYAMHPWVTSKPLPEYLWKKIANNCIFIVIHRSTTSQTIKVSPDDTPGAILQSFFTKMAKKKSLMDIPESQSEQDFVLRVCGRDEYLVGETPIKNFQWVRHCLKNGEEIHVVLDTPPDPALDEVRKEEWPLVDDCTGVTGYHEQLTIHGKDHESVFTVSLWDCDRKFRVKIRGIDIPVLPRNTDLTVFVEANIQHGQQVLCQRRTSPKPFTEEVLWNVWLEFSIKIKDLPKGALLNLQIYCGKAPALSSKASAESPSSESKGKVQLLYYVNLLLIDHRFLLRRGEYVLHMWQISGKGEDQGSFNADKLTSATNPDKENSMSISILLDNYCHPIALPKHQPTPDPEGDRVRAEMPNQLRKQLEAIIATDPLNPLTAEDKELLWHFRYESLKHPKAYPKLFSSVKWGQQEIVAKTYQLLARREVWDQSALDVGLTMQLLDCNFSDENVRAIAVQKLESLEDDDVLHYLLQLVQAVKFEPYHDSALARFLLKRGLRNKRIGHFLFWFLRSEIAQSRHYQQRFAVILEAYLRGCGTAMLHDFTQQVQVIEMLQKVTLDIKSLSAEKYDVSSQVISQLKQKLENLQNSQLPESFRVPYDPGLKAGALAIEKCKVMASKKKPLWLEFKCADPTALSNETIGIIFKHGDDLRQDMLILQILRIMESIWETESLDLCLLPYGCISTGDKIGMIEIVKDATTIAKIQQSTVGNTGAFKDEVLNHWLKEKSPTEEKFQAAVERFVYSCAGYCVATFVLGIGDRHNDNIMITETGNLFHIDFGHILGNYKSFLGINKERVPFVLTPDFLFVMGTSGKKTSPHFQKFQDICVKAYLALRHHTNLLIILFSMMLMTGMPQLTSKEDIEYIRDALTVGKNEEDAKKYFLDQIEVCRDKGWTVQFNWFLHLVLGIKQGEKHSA
Protocol: as §3, §4, §5

PI3Kδ = PI3Kδ (Homo sapiens, UniProt O00329); assay: PI3K isoform kinase assay, δ (CE-assay); type: biochemical; details: read-out: IC50 on PI3K Isoforms, δ
Chain of PI3Kδ (O00329 whole entry, canonical isoform): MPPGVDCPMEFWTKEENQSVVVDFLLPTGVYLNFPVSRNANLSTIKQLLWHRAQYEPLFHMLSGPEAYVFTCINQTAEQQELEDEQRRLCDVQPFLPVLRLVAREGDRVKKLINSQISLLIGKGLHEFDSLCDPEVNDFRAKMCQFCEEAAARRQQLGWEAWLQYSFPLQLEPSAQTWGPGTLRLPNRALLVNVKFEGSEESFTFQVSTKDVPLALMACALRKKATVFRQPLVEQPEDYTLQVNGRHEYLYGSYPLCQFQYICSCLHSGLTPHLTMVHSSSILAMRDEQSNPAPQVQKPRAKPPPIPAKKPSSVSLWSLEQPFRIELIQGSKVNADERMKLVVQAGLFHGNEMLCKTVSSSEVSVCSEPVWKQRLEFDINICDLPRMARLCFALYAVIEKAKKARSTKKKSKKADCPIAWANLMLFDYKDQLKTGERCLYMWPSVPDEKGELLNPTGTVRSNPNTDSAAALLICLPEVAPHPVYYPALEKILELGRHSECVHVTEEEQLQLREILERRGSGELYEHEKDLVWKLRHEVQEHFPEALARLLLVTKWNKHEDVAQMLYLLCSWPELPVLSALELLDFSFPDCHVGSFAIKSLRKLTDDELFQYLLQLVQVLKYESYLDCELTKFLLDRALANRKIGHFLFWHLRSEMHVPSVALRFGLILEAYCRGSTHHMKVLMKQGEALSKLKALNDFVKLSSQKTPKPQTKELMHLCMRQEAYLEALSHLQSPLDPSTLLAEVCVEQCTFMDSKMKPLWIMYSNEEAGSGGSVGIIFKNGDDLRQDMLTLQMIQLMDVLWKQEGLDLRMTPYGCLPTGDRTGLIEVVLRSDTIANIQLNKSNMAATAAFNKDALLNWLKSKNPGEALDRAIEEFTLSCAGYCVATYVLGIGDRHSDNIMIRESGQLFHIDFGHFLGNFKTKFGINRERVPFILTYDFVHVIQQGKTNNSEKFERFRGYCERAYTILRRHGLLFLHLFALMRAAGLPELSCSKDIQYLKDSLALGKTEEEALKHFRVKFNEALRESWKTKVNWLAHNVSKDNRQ
Chain of PI3Kδ (P27986 whole entry partner, canonical isoform): as the sequence (P27986 whole entry partner, canonical isoform) above
Protocol: as §3, §4, §5

PI3Kα = PI3Kα (Homo sapiens, UniProt P42336); assay: PI3Kα kinase assay (Adapta TR-FRET kit; capillary electrophoresis assay); type: biochemical; details: for pIC50: mean of a triplicate experiment, standard deviation in small letters
Chain of PI3Kα (P42336 whole entry): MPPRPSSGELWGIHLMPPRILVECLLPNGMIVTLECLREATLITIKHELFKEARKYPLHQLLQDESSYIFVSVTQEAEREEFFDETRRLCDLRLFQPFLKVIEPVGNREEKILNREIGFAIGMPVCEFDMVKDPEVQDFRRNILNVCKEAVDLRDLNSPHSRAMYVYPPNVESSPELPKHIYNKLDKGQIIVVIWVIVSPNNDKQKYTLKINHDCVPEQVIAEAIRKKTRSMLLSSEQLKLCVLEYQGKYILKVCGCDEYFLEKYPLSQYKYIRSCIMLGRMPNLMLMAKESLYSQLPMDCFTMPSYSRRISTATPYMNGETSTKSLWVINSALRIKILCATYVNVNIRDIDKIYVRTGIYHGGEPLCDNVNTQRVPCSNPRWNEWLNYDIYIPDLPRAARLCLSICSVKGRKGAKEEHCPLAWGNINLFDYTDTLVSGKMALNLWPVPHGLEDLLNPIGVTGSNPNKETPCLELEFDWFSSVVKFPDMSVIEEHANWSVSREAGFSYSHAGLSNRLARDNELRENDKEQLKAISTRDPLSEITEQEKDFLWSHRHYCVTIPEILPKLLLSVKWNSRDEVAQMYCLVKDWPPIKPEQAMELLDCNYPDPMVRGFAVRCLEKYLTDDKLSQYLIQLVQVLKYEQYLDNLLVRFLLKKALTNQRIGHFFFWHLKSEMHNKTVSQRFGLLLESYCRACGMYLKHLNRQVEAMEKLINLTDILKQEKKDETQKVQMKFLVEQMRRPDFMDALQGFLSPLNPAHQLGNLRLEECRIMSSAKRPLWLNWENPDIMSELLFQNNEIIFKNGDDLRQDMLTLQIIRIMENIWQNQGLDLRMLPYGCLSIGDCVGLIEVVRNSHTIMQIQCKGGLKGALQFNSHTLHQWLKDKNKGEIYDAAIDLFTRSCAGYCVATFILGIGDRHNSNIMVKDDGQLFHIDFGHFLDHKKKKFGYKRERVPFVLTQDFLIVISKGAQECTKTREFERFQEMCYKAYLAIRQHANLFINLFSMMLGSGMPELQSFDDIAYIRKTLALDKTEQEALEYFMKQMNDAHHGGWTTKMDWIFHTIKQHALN
Chain of PI3Kα (P27986 whole entry partner): as the sequence (P27986 whole entry partner, canonical isoform) above
Protocol: PI3K kinase activity was measured with the Adapta™ assay kit (Invitrogen, PV5099, Life Technologies, Carlsbad, CA, USA) while mTOR kinase activity was measured with the LANCE^TM Ultra kit (Perkin Elmer). […] Depending on the efficiency of the inhibitor, the level of ADP (which competes with the tracer) will vary, thereby directly affecting the binding of the tracer to the antibody. The TR-FRET signal will evolve accordingly. […] The experimental process was the following: the inhibitor solution (2.5 µL) was injected in a plate followed by the addition of 2.5 µL of PI3Kα and ATP/PIP2 (5 µL) solutions. After incubating for an hour at room temperature with no agitation and with the plate sealed, the kinase reaction was stopped by adding the Detection Solution to yield final concentrations of 10 nM for the tracer, 2 nM for the antibody and 30 mM of EDTA (5 µL). All of these compounds were diluted in a Detection Buffer (PV3574, Invitrogen) and the plate was sealed and incubated for the optimal time of 30 min at room temperature without shaking before the reading step.
The CE system used was a 1600 Hewlett Packard^3DCE (Agilent, Waldbronn, Germany) equipped with a photodiode array detection system. Agilent software 3D-CE Chemstation (rev B.04.02) was used to pilot the CE system and for signal acquisition. CE analyses were performed in silica capillaries (66 cm total length, 57.5 cm effective length, 50 µm i.d.) purchased from Polymicro Technologies (Phoenix, AZ, USA). New capillaries were conditioned by 1.0 M NaOH for 30 min and water for 5 min. They were then coated by rinsing with cationic PDADMAC solution (0.2% w/v) [46, 47]. The separation was conducted at −30 kV (reverse polarity) and at 30 °C. All rinse cycles were carried out at 4 bars. Between runs, the capillary was flushed for 1 min with water, 2 min with PDADMAC and 3 min with BGE.
as §6

| Structure (SMILES) | pIC50 [1] | pIC50 (normal human fibroblast) | SI (mTOR/PI3Kα Ratio) (mTOR) | pIC50 (PI3Kβ) | pIC50 (PI3Kγ) | pIC50 (PI3Kδ) | fold reduction in the PI3Kα inhibition level (PI3Kα; C-7 hydroxymethyl compared with chlorine or methyl derivatives 5 and 6) [fold] | pIC50 (PI3Kα) |
| --- | --- | --- | --- | --- | --- | --- | --- | --- |
| Oc1cccc(-c2nc(N3CCOCC3)c3ncc(Cl)cc3n2)c1 [Compound 5, 7-Chloro-2-(3-hydroxyphenyl)-4-morpholinylpyrido[3,2-d]pyrimidine] | < 4.60 | < 4.60 | – | – | – | – | – | – |
| Cc1cnc2c(N3CCOCC3)nc(-c3cccc(O)c3)nc2c1 [Compound 6, 3-(7-Methyl-4-morpholinylpyrido[3,2-d]pyrimidin-2-yl)phenol] | – | – | 4.6 | 6.35 | 5.26 | 5.85 | – | – |
| OCc1cnc2c(N3CCOCC3)nc(-c3cccc(O)c3)nc2c1 [Compound 15, 3-(7-(Hydroxymethyl)-4-morpholinylpyrido[3,2-d]pyrimidin-2-yl)phenol] | – | – | – | – | – | – | 30 | – |
| [N-]=[N+]=NCc1cnc2c(N3CCOCC3)nc(-c3cccc(O)c3)nc2c1 [Compound 19, 3-(7-(Azidomethyl)-4-morpholinylpyrido[3,2-d]pyrimidin-2-yl)phenol] | < 4.60 | < 4.60 | – | – | – | – | – | – |
| COCc1cn(Cc2cnc3c(N4CCOCC4)nc(-c4cccc(O)c4)nc3c2)nn1 [Compound 21, 3-(7-((4-(Methoxymethyl)-1H-1.2.3-triazol-1-yl)methyl)-4-morpholinylpyrido[3,2-d]pyrimidin-2-yl)phenol] | – | < 4.60 | – | 7.30 | 5.70 | 5.92 | – | 8.00 |
| CO/N=C/c1cnc2c(N3CCOCC3)nc(-c3cccc(O)c3)nc2c1 [Compound 32, 2-(3-Hydroxyphenyl)-4-morpholinylpyrido[3,2-d]pyrimidine-7-carbaldehyde O-methyl oxime] | < 4.60 | – | 33.3 | – | – | – | – | 8.52 |
